Assays:
Wee1 kinase = target: T1, Wee1 kinase (Homo sapiens, UniProt P30291); experiment: Wee1 kinase inhibitory effect (Pharmacological Test 1); type: biochemical; conditions: purified GST-tagged Wee1 kinase, Poly(Lys, Tyr) substrate, 10 μM ATP, 30° C. for 30 minutes; read-out: Weel Inhibition Activity (IC50)
T1 construct: made in house; host or cells: Sf9 insect cells (recombinant baculovirus)
Source text: The following describes exemplary pharmacological tests of a compound of the present invention._Pharmacological Test 1 (Wee1 kinase inhibitory effect)
A cDNA of Wee1 kinase with glutathione-S-transferase (GST) fused at the amino terminal thereof was inserted into a baculovirus expression vector to construct a recombinant baculovirus, with which cells of an insect cell line Sf9 were infected to overexpress the target protein. The infected cells were collected and lysed, and then the GST-tagged Wee1 kinase protein was adsorbed to a glutathione column and eluted from the column with glutathione, and the active fraction was desalted in a desalting column to give a purified enzyme.
In measurement of the Wee1 kinase activity, a synthetic peptide, Poly(Lys, Tyr) hydrobromide (Lys:Tyr (4:1)) purchased from Sigma was used as the substrate.
The amount of the reaction mixture was 21.1 μL; and the composition of the reaction buffer was 50 mM Tris-HCl buffer (pH 7.4)/10 mM magnesium chloride/1 mM dithiothreitol. The purified Wee1 kinase, 2.5 μg of the substrate peptide, 10 μM of non-labeled adenosine triphosphate (ATP) and 1 μCi of [γ-^33P]-labeled ATP (2500 Ci/mmol or more) were added to the reaction buffer, and the resulting mixture was incubated at 30° C. for 30 minutes. Thereafter, 10 μL of 350 mM phosphate buffer was added to the reaction system to stop the reaction. The substrate peptide was adsorbed on a P81 paper filter 96-well plate and the plate was washed several times with 130 mM phosphate buffer, and the radioactivity thereof was counted using a liquid scintillation counter. The [γ-^33P]-labeled ATP was purchased from Amersham Bioscience, Ltd.
The addition of a test compound to the reaction system was carried out by preparing a series of dilutions of the compound with dimethyl sulfoxide (DMSO) and adding 1.1 μL of each dilution to the reaction system. As a control, 1.1 μL of DMSO was added to the reaction system.

[1] = test system: Cdc2 (Cdk1) tyrosine-15 phosphorylation in NCI-H1299 cells; experiment: Inhibitory effect on Cdc2 (Cdk1) tyrosine-15 phosphorylation in cells (Pharmacological Test 2, NCI-H1299 method); type: cell-based; conditions: Homo sapiens, 200 nM camptothecin 16 hours, then test compound with nocodazole 8 hours, ELISA ratio of tyrosine-15-phosphorylated Cdc2 to Cdc2, read-out: Cdc2-Tyrosine 15 Phosphorylation Inhibiting Effect
Source text: Pharmacological Test 2 (Method for determining drug effect using cells (inhibitory effect on Cdc2 (Cdk1) tyrosine-15 phosphorylation))
Fetal bovine serum (FBS) was purchased from Morgate, Inc.; an RPMI-1640 medium and a DMEM medium were purchased from Invitrogen, Inc.; camptothecin was purchased from Sigma Co.; gemcitabine was purchased from Eli Lilly Japan K.K.; nocodazole and protease inhibitor cocktail were purchased from Sigma Co.; a rabbit anti-Cdc2 antibody and a mouse anti-Cdc2 antibody were purchased from Santa Cruz Biotechnology, Inc.; a rabbit anti-tyrosine-15-phosphorylated Cdc2 antibody and a horseradish peroxidase-labeled anti-mouse IgG antibody were purchased from Cell Signaling Technology, Inc.; and Sure Blue Reserve TMB peroxidase substrate was purchased from Kirkegaard & Perry Laboratories, Inc.
A human non-small cell lung cancer cell line (NCI-H1299) and a human colon cancer cell line (WiDr) can be obtained from American Type Culture Collection (ATCC).
In the method using NCI-H1299 cells, the cells were suspended in an RPMI-1640 medium supplemented with 10% FBS, and 100 μL of the resulting cell suspension was dispensed in a Nunclon Delta treated 96-well plastic plate purchased from Nunc, Inc. at a density of 2000 cells per well, and the plate was incubated overnight at 37° C. under an atmosphere of 5% CO2 and 95% air. Camptothecin was dissolved in dimethyl sulfoxide (DMSO) and further the resulting solution was diluted with an RPMI-1640 medium supplemented with 10% FBS. Then, 50 μL of the diluted solution was added to each well of the plate in which the cells were seeded in advance such that the final concentration of camptothecin was 200 nM, and the plate was incubated at 37° C. under an atmosphere of 5% CO2 and 95% air for 16 hours. A test compound was serially diluted with DMSO, and further diluted with an RPMI-1640 medium supplemented with 10% FBS containing 4000 nM nocodazole. Then, 50 μL of the test compound solution was added to each well of the plate in which the cells treated with camptothecin were seeded, and the plate was incubated at 37° C. under an atmosphere of 5% CO2 and 95% air for 8 hours. Then, the culture medium was removed from each well and […] of a cell lysis buffer was added to each well, and the plate was shaken at 4° C. for 2 hours, and thereafter the liquid in the plate was frozen at −80° C. and then thawed, which was used as a lysed cell solution. Cdc2 and tyrosine-15-phosphorylated Cdc2 in this lysed cell solution were measured by an enzyme-linked immunosorbent assay (ELISA method), and a ratio of tyrosine-15-phosphorylated Cdc2 to Cdc2 was calculated to determine a 50% effective concentration (EC50, nM) of the test compound for inhibition of phosphorylation in cells. The cell lysis buffer as used herein is an aqueous solution […] containing 20 mM HEPES (pH 7.5), 150 mM sodium chloride, 1 mM disodium ethylenediamine tetraacetate, 0.1% polyoxyethylene (10) octylphenyl ether, 1% protease inhibitor cocktail, 1 mM dithiothreitol, 2 mM sodium orthovanadate, 10 mM sodium fluoride and 10 mM glycerol diphosphate. The measurement of Cdc2 by the ELISA method was carried out as follows. 50 μL of a solution of a rabbit anti-Cdc2 antibody obtained by diluting the antibody to 200 times with 50 mM carbonate-bicarbonate buffer (pH 9.6) was dispensed into each well of a 96-well Maxisorb immunoplate purchased from Nunc, Inc., and the immunoplate was let stand overnight at 4° C. to immobilize the antibody thereto. Subsequently, each well was washed three times with phosphate buffered saline (PBS), and 300 μL of PBS containing 5% bovine serum albumin (5% BSA/PBS) was added to each well, and then, the immunoplate was let stand at room temperature for 2 hours. […]

T1 sequence (P30291 whole entry): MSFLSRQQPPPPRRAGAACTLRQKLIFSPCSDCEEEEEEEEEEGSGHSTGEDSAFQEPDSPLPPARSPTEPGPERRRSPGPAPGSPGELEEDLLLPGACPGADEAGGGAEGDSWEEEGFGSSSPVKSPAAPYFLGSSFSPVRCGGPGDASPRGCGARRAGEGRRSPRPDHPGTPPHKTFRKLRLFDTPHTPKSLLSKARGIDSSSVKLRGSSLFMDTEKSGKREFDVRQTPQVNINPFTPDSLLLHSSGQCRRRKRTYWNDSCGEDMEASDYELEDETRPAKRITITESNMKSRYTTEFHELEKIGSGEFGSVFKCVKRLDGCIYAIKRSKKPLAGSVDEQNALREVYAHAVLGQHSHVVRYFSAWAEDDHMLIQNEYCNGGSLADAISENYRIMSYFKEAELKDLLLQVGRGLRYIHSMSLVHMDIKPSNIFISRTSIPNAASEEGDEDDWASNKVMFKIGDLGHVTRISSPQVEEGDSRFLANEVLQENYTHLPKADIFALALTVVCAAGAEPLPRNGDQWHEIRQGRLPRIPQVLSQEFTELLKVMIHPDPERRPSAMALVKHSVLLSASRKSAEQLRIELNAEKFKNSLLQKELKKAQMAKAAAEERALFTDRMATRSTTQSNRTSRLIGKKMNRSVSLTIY

Cn1c(=O)n(-c2c(Cl)cccc2Cl)c(=N)c2cnc(Nc3ccc(N4CCN(CCO)CC4)cc3)nc21 [Example 1, 3-(2,6-Dichlorophenyl)-7-({4-[4-(2-hydroxyethyl)piperazin-1-yl]phenyl}amino)-4-imino-1-methyl-3,4-dihydropyrimido[4,5-d]pyrimidin-2(1H)-one] was tested, and the IC50 (Wee1 kinase) was 4 nM and the EC50 [1] was 71 nM.
In the case of Cn1c(=O)n(-c2c(Cl)cccc2Cl)c(=N)c2cnc(Nc3ccc(N4CCOC(CO)C4)cc3)nc21 (stereo not shown) [Example 2, 3-(2,6-Dichlorophenyl)-7-({4-[2-(hydroxymethyl)morpholin-4-yl]phenyl}amino)-4-imino-1-methyl-3,4-dihydropyrimido[4,5-d]pyrimidin-2(1H)-one], the IC50 (Wee1 kinase) is reported as 2 nM and the EC50 [1] is reported as 86 nM.
CN(C)CC(=O)N1CCN(c2ccc(Nc3ncc4c(=N)n(-c5c(Cl)cccc5Cl)c(=O)n(C)c4n3)cc2)CC1 [Example 3, 3-(2,6-Dichlorophenyl)-7-[(4-{4-[(dimethylamino)acetyl]piperazin-1-yl}phenyl)amino]-4-imino-1-methyl-3,4-dihydropyrimido[4,5-d]pyrimidin-2(1H)-one] was tested, and the IC50 (Wee1 kinase) was 12 nM and the EC50 [1] was 45 nM.
Compound CN(C)CC1CN(c2ccc(Nc3ncc4c(=N)n(-c5c(Cl)cccc5Cl)c(=O)n(C)c4n3)cc2)CCO1 (stereo not shown) [Example 4, 3-(2,6-Dichlorophenyl)-7-[(4-{2-[(dimethylamino)methyl]morpholin-4-yl}phenyl)amino]-4-imino-1-methyl-3,4-dihydropyrimido[4,5-d]pyrimidin-2(1H)-one] has an IC50 (Wee1 kinase) of 10 nM and an EC50 [1] of 34 nM.
CN1CCN(c2ccc(Nc3ncc4c(=N)n(-c5c(Cl)cccc5Cl)c(=O)[nH]c4n3)cc2)CC1 [Example 5, 3-(2,6-Dichlorophenyl)-4-imino-7-{[4-(4-methylpiperazin-1-yl)phenyl]amino}-3,4-dihydropyrimido[4,5-d]pyrimidin-2(1H)-one] showed an IC50 (Wee1 kinase) of 17 nM and an EC50 [1] of 66 nM.
Cc1cc(Nc2ncc3c(=N)n(-c4c(Cl)cccc4Cl)c(=O)[nH]c3n2)ccc1N1CCN(C)CC1 [Example 6, 3-(2,6-Dichlorophenyl)-4-imino-7-{[3-methyl-4-(4-methylpiperazin-1-yl)phenyl]amino}-3,4-dihydropyrimido[4,5-d]pyrimidin-2(1H)-one] was tested, and the IC50 (Wee1 kinase) was 8 nM and the EC50 [1] was 25 nM.
CN1CCN(c2ccc(Nc3ncc4c(=N)n(-c5c(Cl)cccc5Cl)c(=O)n(C)c4n3)cc2)CC1 [Example 7, 3-(2,6-Dichlorophenyl)-4-imino-1-methyl-7-{[4-(4-methylpiperazin-1-yl)phenyl]amino}-3,4-dihydropyrimido[4,5-d]pyrimidin-2(1H)-one] showed an IC50 (Wee1 kinase) of 6 nM.
CN(C)[C@@H]1CCN(c2ccc(Nc3ncc4c(=N)n(-c5c(Cl)cccc5Cl)c(=O)[nH]c4n3)cc2)C1 [Example 8, 3-(2,6-Dichlorophenyl)-7-({4-[(3R)-3-dimethylaminopyrrolidin-1-yl]phenyl}amino)-4-imino-3,4-dihydropyrimido[4,5-d]pyrimidin-2(1H)-one] was tested, and the IC50 (Wee1 kinase) was 17 nM and the EC50 [1] was 75 nM.
Compound CN1CC2CCN(c3ccc(Nc4ncc5c(=N)n(-c6c(Cl)cccc6Cl)c(=O)[nH]c5n4)cc3)C2C1 (stereo not shown) [Example 9, 3-(2,6-Dichlorophenyl)-4-imino-7-{[4-(5-methylhexahydropyrrolo[3,4-b]pyrrol-1(2H)-yl)phenyl}amino)-3,4-dihydropyrimido[4,5-d]pyrimidin-2(1H)-one] has an IC50 (Wee1 kinase) of 16 nM and an EC50 [1] of 110 nM.
In the case of CN1CCC2(CCCN(c3ccc(Nc4ncc5c(=N)n(-c6c(Cl)cccc6Cl)c(=O)[nH]c5n4)cc3)C2)C1 (stereo not shown) [Example 10, 3-(2,6-Dichlorophenyl)-4-imino-7-{[4-(2-methyl-2,7-diazaspiro[4,5]dec-7-yl)phenyl}amino)-3,4-dihydropyrimido[4,5-d]pyrimidin-2(1H)-one], the IC50 (Wee1 kinase) is reported as 18 nM and the EC50 [1] is reported as 110 nM.
